Source: the supplement of paper PMC10307832

Tests used:
Assay in all cases: relative viability (nuclei count vs DMSO), 5 days (fraction); higher = more cells survive
[1] = tested on: NCI-H1793
Outline: (§1)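 Each reported value is a median over duplicate plates. It expresses relative viability: treated-well nuclei count divided by vehicle-well nuclei count. Lung cancer cell lines in 1536-well plates were dosed by pin tool a day after seeding, alone with one drug or with a fixed anchor-drug dose plus five library-drug doses (not always all listed) in √10 steps, and nuclei were counted after 5 days.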

[2] = tested on: ChaGo-K-1
Outline: as §1

[3] = tested on: NCI-H1395
Outline: as §1

[4] = tested on: NCI-H1437
Outline: as §1

[5] = tested on: NCI-H1944
Outline: as §1

[6] = tested on: LCLC-97TM1
Outline: as §1

[7] = tested on: NCI-H661
Outline: as §1

[8] = tested on: NCI-H2085
Outline: as §1

[9] = tested on: HARA
Outline: as §1

[10] = tested on: NCI-H441
Outline: as §1

[11] = tested on: COR-L23
Outline: as §1

[12] = tested on: NCI-H2087
Outline: as §1

[13] = tested on: H3255
Outline: as §1

[14] = tested on: NCI-H3122
Outline: as §1

[15] = tested on: NCI-H1650
Outline: as §1

[16] = tested on: NCI-H2126
Outline: as §1

[17] = tested on: LXF-289
Outline: as §1

[18] = tested on: HCC-78
Outline: as §1

[19] = tested on: EPLC-272H
Outline: as §1

[20] = tested on: PC-14
Outline: as §1

[21] = tested on: HOP-62
Outline: as §1

[22] = tested on: NCI-H1666
Outline: as §1

Cc1cn(-c2cc(NC(=O)c3ccc(C)c(Nc4nccc(-c5cccnc5)n4)c3)cc(C(F)(F)F)c2)cn1 [Nilotinib] + Nc1ncn([C@H]2C[C@H](O)[C@@H](CO)O2)c(=O)n1 [Decitabine] (partner 2 µM)
relative viability ([1]; first compound 0.001 µM): 0.49
relative viability ([1]; first compound 0.003162 µM): 0.263
relative viability ([1]; first compound 0.01 µM): 0.87
relative viability ([1]; first compound 0.03162 µM): 0.708
relative viability ([1]; first compound 0.1 µM): 0.516
relative viability ([2]; first compound 0.001 µM): 0.528
relative viability ([2]; first compound 0.003162 µM): 0.584
relative viability ([2]; first compound 0.01 µM): 0.585
relative viability ([2]; first compound 0.03162 µM): 0.519
relative viability ([2]; first compound 0.1 µM): 0.577
relative viability ([3]; first compound 0.001 µM): 0.745
relative viability ([3]; first compound 0.01 µM): 0.798
relative viability ([3]; first compound 0.03162 µM): 0.707
relative viability ([3]; first compound 0.1 µM): 0.891
relative viability ([4]; first compound 0.001 µM): 0.562
relative viability ([4]; first compound 0.003162 µM): 0.632
relative viability ([4]; first compound 0.01 µM): 0.625
relative viability ([4]; first compound 0.03162 µM): 0.545
relative viability ([4]; first compound 0.1 µM): 0.671
relative viability ([5]; first compound 0.001 µM): 0.445
relative viability ([5]; first compound 0.003162 µM): 0.505
relative viability ([5]; first compound 0.01 µM): 0.512
relative viability ([5]; first compound 0.03162 µM): 0.591
relative viability ([5]; first compound 0.1 µM): 0.537
relative viability ([6]; first compound 0.001 µM): 0.201
relative viability ([6]; first compound 0.003162 µM): 0.283
relative viability ([6]; first compound 0.01 µM): 0.279
relative viability ([6]; first compound 0.03162 µM): 0.321
relative viability ([7]; first compound 0.001 µM): 0.554
relative viability ([7]; first compound 0.003162 µM): 0.56
relative viability ([7]; first compound 0.01 µM): 0.644
relative viability ([7]; first compound 0.03162 µM): 0.469
relative viability ([7]; first compound 0.1 µM): 0.546
relative viability ([8]; first compound 0.001 µM): 0.591
relative viability ([8]; first compound 0.003162 µM): 0.619
relative viability ([8]; first compound 0.01 µM): 0.675
relative viability ([8]; first compound 0.03162 µM): 0.794
relative viability ([8]; first compound 0.1 µM): 0.76
relative viability ([9]; first compound 0.001 µM): 0.383
relative viability ([9]; first compound 0.003162 µM): 0.681
relative viability ([9]; first compound 0.01 µM): 0.856
relative viability ([9]; first compound 0.03162 µM): 0.47
relative viability ([9]; first compound 0.1 µM): 0.649
relative viability ([10]; first compound 0.001 µM): 0.295
relative viability ([10]; first compound 0.003162 µM): 0.304
relative viability ([10]; first compound 0.01 µM): 0.284
relative viability ([10]; first compound 0.03162 µM): 0.367
relative viability ([10]; first compound 0.1 µM): 0.365
relative viability ([11]; first compound 0.001 µM): 0.445
relative viability ([11]; first compound 0.003162 µM): 0.493
relative viability ([11]; first compound 0.01 µM): 0.464
relative viability ([11]; first compound 0.03162 µM): 0.482
relative viability ([11]; first compound 0.1 µM): 0.601
relative viability ([12]; first compound 0.001 µM): 0.202
relative viability ([12]; first compound 0.003162 µM): 0.244
relative viability ([12]; first compound 0.01 µM): 0.261
relative viability ([12]; first compound 0.03162 µM): 0.18
relative viability ([12]; first compound 0.1 µM): 0.131
relative viability ([13]; first compound 0.001 µM): 0.549
relative viability ([13]; first compound 0.003162 µM): 0.659
relative viability ([13]; first compound 0.03162 µM): 0.667
relative viability ([13]; first compound 0.1 µM): 0.692
relative viability ([14]; first compound 0.001 µM): 0.504
relative viability ([14]; first compound 0.003162 µM): 0.468
relative viability ([14]; first compound 0.01 µM): 0.505
relative viability ([14]; first compound 0.03162 µM): 0.471
relative viability ([14]; first compound 0.1 µM): 0.314
relative viability ([15]; first compound 0.001 µM): 0.462
relative viability ([15]; first compound 0.003162 µM): 0.621
relative viability ([15]; first compound 0.01 µM): 0.579
relative viability ([15]; first compound 0.03162 µM): 0.588
relative viability ([15]; first compound 0.1 µM): 0.757
relative viability ([16]; first compound 0.001 µM): 0.541
relative viability ([16]; first compound 0.003162 µM): 0.675
relative viability ([16]; first compound 0.01 µM): 0.564
relative viability ([16]; first compound 0.03162 µM): 0.614
relative viability ([16]; first compound 0.1 µM): 0.568
relative viability ([17]; first compound 0.001 µM): 0.363
relative viability ([17]; first compound 0.003162 µM): 0.447
relative viability ([17]; first compound 0.01 µM): 0.391
relative viability ([17]; first compound 0.03162 µM): 0.551
relative viability ([17]; first compound 0.1 µM): 0.61
relative viability ([18]; first compound 0.001 µM): 0.702
relative viability ([18]; first compound 0.003162 µM): 0.576
relative viability ([18]; first compound 0.01 µM): 0.666
relative viability ([18]; first compound 0.03162 µM): 0.669
relative viability ([18]; first compound 0.1 µM): 0.658
relative viability ([19]; first compound 0.001 µM): 0.294
relative viability ([19]; first compound 0.003162 µM): 0.368
relative viability ([19]; first compound 0.01 µM): 0.436
relative viability ([19]; first compound 0.03162 µM): 0.341
relative viability ([19]; first compound 0.1 µM): 0.338
relative viability ([20]; first compound 0.001 µM): 0.24
relative viability ([20]; first compound 0.003162 µM): 0.263
relative viability ([20]; first compound 0.01 µM): 0.27
relative viability ([20]; first compound 0.03162 µM): 0.304
relative viability ([20]; first compound 0.1 µM): 0.266
relative viability ([21]; first compound 0.003162 µM): 0.276
relative viability ([21]; first compound 0.03162 µM): 0.464
relative viability ([22]; first compound 0.001 µM): 0.698
relative viability ([22]; first compound 0.01 µM): 0.697
relative viability ([22]; first compound 0.03162 µM): 0.606
relative viability ([22]; first compound 0.1 µM): 0.613

CN1CCN(CCOc2cc(OC3CCOCC3)c3c(Nc4c(Cl)ccc5c4OCO5)ncnc3c2)CC1 [Saracatinib] + CC(=O)c1c(C)c2cnc(Nc3ccc(N4CCNCC4)cn3)nc2n(C2CCCC2)c1=O [Palbociclib] (partner 0.5 µM)
relative viability ([1]; first compound 0.02 µM): 0.363
relative viability ([1]; first compound 0.2 µM): 0.311
relative viability ([1]; first compound 0.6325 µM): 0.299
relative viability ([1]; first compound 2 µM): 0.278
relative viability ([2]; first compound 0.02 µM): 0.896
relative viability ([2]; first compound 0.2 µM): 0.533
relative viability ([2]; first compound 0.6325 µM): 0.92
relative viability ([2]; first compound 2 µM): 0.865
relative viability ([3]; first compound 0.02 µM): 0.606
relative viability ([3]; first compound 0.2 µM): 0.562
relative viability ([3]; first compound 0.6325 µM): 0.598
relative viability ([3]; first compound 2 µM): 0.516
relative viability ([4]; first compound 0.02 µM): 0.355
relative viability ([4]; first compound 0.2 µM): 0.337
relative viability ([4]; first compound 0.6325 µM): 0.455
relative viability ([4]; first compound 2 µM): 0.308
relative viability ([5]; first compound 0.02 µM): 0.3
relative viability ([5]; first compound 0.2 µM): 0.281
relative viability ([5]; first compound 0.6325 µM): 0.305
relative viability ([5]; first compound 2 µM): 0.255
relative viability ([6]; first compound 0.02 µM): 0.21
relative viability ([6]; first compound 0.2 µM): 0.185
relative viability ([6]; first compound 0.6325 µM): 0.281
relative viability ([6]; first compound 2 µM): 0.175
relative viability ([7]; first compound 0.02 µM): 0.393
relative viability ([7]; first compound 0.2 µM): 0.359
relative viability ([7]; first compound 0.6325 µM): 0.395
relative viability ([7]; first compound 2 µM): 0.306
relative viability ([8]; first compound 0.02 µM): 0.518
relative viability ([8]; first compound 0.2 µM): 0.448
relative viability ([8]; first compound 0.6325 µM): 0.499
relative viability ([8]; first compound 2 µM): 0.48
relative viability ([9]; first compound 0.02 µM): 0.234
relative viability ([9]; first compound 0.2 µM): 0.208
relative viability ([9]; first compound 0.6325 µM): 0.269
relative viability ([9]; first compound 2 µM): 0.161
relative viability ([10]; first compound 0.02 µM): 0.243
relative viability ([10]; first compound 0.2 µM): 0.196
relative viability ([10]; first compound 0.6325 µM): 0.199
relative viability ([10]; first compound 2 µM): 0.182
relative viability ([11]; first compound 0.02 µM): 0.278
relative viability ([11]; first compound 0.2 µM): 0.301
relative viability ([11]; first compound 0.6325 µM): 0.243
relative viability ([11]; first compound 2 µM): 0.287
relative viability ([12]; first compound 0.02 µM): 0.252
relative viability ([12]; first compound 0.2 µM): 0.255
relative viability ([12]; first compound 0.6325 µM): 0.303
relative viability ([12]; first compound 2 µM): 0.179
relative viability ([13]; first compound 0.02 µM): 0.329
relative viability ([13]; first compound 0.2 µM): 0.31
relative viability ([13]; first compound 0.6325 µM): 0.336
relative viability ([13]; first compound 2 µM): 0.297
relative viability ([14]; first compound 0.02 µM): 0.194
relative viability ([14]; first compound 0.2 µM): 0.174
relative viability ([14]; first compound 0.6325 µM): 0.199
relative viability ([14]; first compound 2 µM): 0.185
relative viability ([15]; first compound 0.02 µM): 0.334
relative viability ([15]; first compound 0.2 µM): 0.28
relative viability ([15]; first compound 0.6325 µM): 0.267
relative viability ([15]; first compound 2 µM): 0.159
relative viability ([16]; first compound 0.02 µM): 0.358
relative viability ([16]; first compound 0.2 µM): 0.344
relative viability ([16]; first compound 0.6325 µM): 0.363
relative viability ([16]; first compound 2 µM): 0.349
relative viability ([17]; first compound 0.02 µM): 0.621
relative viability ([17]; first compound 0.2 µM): 0.582
relative viability ([17]; first compound 0.6325 µM): 0.601
relative viability ([17]; first compound 2 µM): 0.571
relative viability ([18]; first compound 0.02 µM): 0.461
relative viability ([18]; first compound 0.2 µM): 0.406
relative viability ([18]; first compound 0.6325 µM): 0.45
relative viability ([18]; first compound 2 µM): 0.342
relative viability ([19]; first compound 0.02 µM): 0.342
relative viability ([19]; first compound 0.2 µM): 0.287
relative viability ([19]; first compound 0.6325 µM): 0.413
relative viability ([19]; first compound 2 µM): 0.305
relative viability ([20]; first compound 0.02 µM): 0.471
relative viability ([20]; first compound 0.2 µM): 0.217
relative viability ([20]; first compound 0.6325 µM): 0.0934
relative viability ([20]; first compound 2 µM): 0.0848
relative viability ([21]; first compound 0.02 µM): 0.452
relative viability ([21]; first compound 0.2 µM): 0.396
relative viability ([21]; first compound 0.6325 µM): 0.459
relative viability ([21]; first compound 2 µM): 0.477
relative viability ([22]; first compound 0.02 µM): 0.684
relative viability ([22]; first compound 0.2 µM): 0.474
relative viability ([22]; first compound 0.6325 µM): 0.599
relative viability ([22]; first compound 2 µM): 0.651
